# Laboratory results: patent publication US5260425A, “Anthracycline derivatives having cytostatic activity” (priority 1988, dated 1993)
# Read-outs that look alike come from different tables or passages of the source.
# Experiments:
# [1] = test system: L1210 mouse leukemia cells; assay: Formation of colonies of L1210 leukemia cells in soft agar (cytotoxicity in vitro); format: cell-based; conditions: for IC50: Mus musculus
# Experimental: The cytostatic activity of the compounds according to the invention has been tested using L1210 mouse leukemia cells. Employed for this purpose was the formation of colonies of L1210 leukemia cells in agar plates. This method is used to detect the effect of the test substances on the growth behavior of the cells over 1 hour or over several generations. In this connection, with a cell cycle time of 10-12 hours about 14 consecutive generations are observed in the 7 days the test lasts. In this test, the substances having cytostatic activity according to the invention bring about a reduction in the number of colonies to be observed by comparison with an untreated control sample.
# Procedure for determining the formation of colonies of L1210 leukemia cells in soft agar
# 500 leukemia cells per plate were incubated with various concentrations of the test substance at 37° C. for 1 hour. The cells were then washed twice with McCoy5A medium and finally, after addition of 0.3% agar, poured into Petri dishes. Controls were incubated only with fresh medium. In place of the incubation for one hour, in some cases various concentrations and test substances were mixed with the upper agar layer in order in this way to achieve continuous exposure of the cells throughout the incubation time. After the agar had solidified, the plates were incubated in an incubator at 37° C. for 7 days (5% by volume CO2, 95% relative humidity). The number of colonies which had been produced with a diameter of more than 60 μm was then counted. The results have been reported as the number of colonies in treated agar plates as a percentage of the untreated control. The IC50 was determined as a measure of the activity of the substance from the dose-effect plot obtained in this way. The results for the compounds described herein, by comparison with adriamycin, are compiled in Table 1.
# L1210 leukemia = assay: In vivo activity on L1210 leukemia of the mouse (antitumor activity T/C); conditions: Mus musculus
# Experimental: Ascites fluid is removed from DBA2 mice (female, 18-20 g) under sterile conditions 7 days after inoculation of tumor cells. The ascites is washed three times with PBS (phosphate-buffered saline), counted and adjusted to a cell count of 10^6 in 0.2 ml of PBS.
# 10^6 cells, suspended in 0.2 ml of PBS, are then injected intraperitoneally into DBF1 mice (female, 18-20 g). 6 animals per group are used for each substance concentration and as controls.
# a) The animals are weighed on days 1 and 5 after injection of the test substance. A weight loss of more than 20% on day 5 is regarded as an indicator of a toxic effect of the substance.
# b) At the end of the experiment (death of all animals or surviving animals on day 60) the mean survival time of the animals in the particular groups is determined as long as at least 65% of the animals were still alive on day 5 of the experiment. The mean survival time is determined only for animals which die during the course of the experiment. Long-term survivors (LTS) are not included in this calculation and are reported separately.
# The antitumor activity (T/C) for the particular substance concentration is determined from the mean survival time (MSTT) in the treated groups and in the control groups (MSTC) as a percentage of the untreated controls in accordance with the following formula: [formula]
# The T/C values and the treatment regimen employed in each case are compiled in Table 3, together with the indicative toxicity. T/C values greater than 125% are regarded as an indicator of a significant antitumor activity of the test substance.
# [2] = test system: sensitive and resistant L1210 leukemia cells; assay: Proliferation test (MTT reduction), cross-resistance to doxorubicin/adriamycin in vitro; format: cell-based, mouse
# Experimental: L1210, A 549 or HT 29 in the exponential phase of growth are incubated in a cell density of 5×10^3 cells/ml in RPMI 1640 in a 96-well microtiter plate with various concentrations of the test substance at 37° C., 5% CO2 and 95% relative humidity for 72 h. Control experiments receive merely growth medium in place of the test substance. Quadruplicate determinations are set up for each test substance and for the control. After incubation for 65 h, 50 μl of an MTT solution (2.5 mg/ml; MTT=3-(4,5-dimethylthiazol-2-yl)-2,5-diphenyltetrazoliumbromide) in phosphate-buffered saline) are added. MTT is reduced to a dark red insoluble formazan dyestuff in the presence of live cells. This reaction is complete after 7 h (L1210 cells) or after 24 h (A 549, HT 29 cells), and the supernatant medium is carefully removed by aspiration. The insoluble dyestuff is dissolved by addition of 100 μl of DMSO (dimethyl sulfoxide) and the extinction of the resulting solution at a wavelength of 492 nm is then measured for each well in a multiscan 340 CC photometer from Flow.
# The ratio of the extinctions for treated and untreated cells provides a dose-effect plot from which the concentration which just kills 50% of the cells (IC50) can be read off. The coefficient of variation for repeat investigations is less than 15%.
# The cross-resistance between the particular test compound and doxorubicin as standard compound is determined with the aid of the MTT test (see above for method) on sensitive and resistant L1210 leukemia cells.
# The resistant cell line was established by incubation of a sensitive subline with the reference compound in concentrations which increased stepwise.
# The IC50 of the test compound on the resistant subline related to the IC50 of the sensitive subline provides both the degree of resistance for the test Compound (DR(T)) and that for the reference compound (DR(R)) in accordance with the formula [formula]
# In addition, the degree of cross-resistance (DCR) for the test compound is calculated in accordance with the formula [formula]
# In the case where the loss of effect of the test compound on the resistant line in relation to the sensitive line is greater than that of the reference compound it is possible for the degree of cross-resistance to be above 100%.
# [3] = Determination of the indicative toxicity; conditions: mouse, in vivo, ip; 3xip,q3d (three intraperitoneal administrations, 3 days interval); survival day 14
# Experimental: To determine the indicative toxicity, NMRI mice receive an intraperitoneal injection of various doses of the test substance dissolved in 0.5 ml of 5% strength glucose solution on day 0. Control groups receive merely 0.5 ml of 5% strength glucose solution. 5 mice are used for each concentration of the test substance. The number of mice surviving on day 14 is determined, and from this the LD5, LD50 and LD95 are determined by the Litchfield-Wilcoxon method. The toxicity (LD50 (mg/kg)) of the compounds described here is summarized in Table 3 by comparison with adriamycin.
# [4] = L1210, 168 h, read-out: IC50, continuous incubation, continuous incubation, 7 days, L1210 colonies in agar
# [5] = L1210, read-out: IC50, 1 h incubation, 1 h incubation, then 7 days, L1210 colonies in agar
# [6] = 168 h, continuous incubation, 7 days, L1210 colonies in agar, read-out: IC50, continuous incubation
# [7] = 1 h incubation, then 7 days, L1210 colonies in agar, read-out: IC50, 1 h incubation
# [8] = 1 h incubation, then 7 days, L1210 colonies in agar
# [9] = continuous incubation, 7 days, L1210 colonies in agar
SMILES,"IC50 [1, 6] [µg/mL]","IC50 [1, 7] [µg/mL]",LD50 at 336 h [3] [mg/kg],also measured
"CC[C@@]1(O)C[C@H](O[C@H]2C[C@H](N(C)CC3CO3)[C@H](O)[C@H](C)O2)c2c(O)c3c(c(O)c2[C@H]1O)C(=O)c1cccc(O)c1C3=O (stereo partly drawn) [Compound 8m, 7-O-(3'-N-Glycidyl-3'-N-methyl-alpha-L-daunosaminyl)-β-rhodomycinone]",,,,"IC50 [1, 4]: 0.002 µg/mL; IC50 [1, 5]: 0.0072 µg/mL; response vs control in vivo at 0.47 mg/kg (L1210 leukemia; L1210, ip, read-out: T/C, L1210-leukemia in vivo): 114%"
"CC[C@@]1(O)C[C@H](O[C@H]2C[C@H](N(C)Cc3ccccn3)[C@H](O)[C@H](C)O2)c2c(O)c3c(c(O)c2[C@H]1O)C(=O)c1cccc(O)c1C3=O [Compound 5, 7-O-(3'-N-Methyl-3'-N-(2-picolyl)-alpha-L-daunosaminyl)-β-rhodomycinone]",0.038,0.24,,
"CC[C@@]1(O)C[C@H](O[C@H]2C[C@H](N(C)CC3CO3)[C@H](O)[C@H](C)O2)c2c(O)c3c(c(O)c2[C@H]1O)C(=O)c1cccc(O)c1C3=O (single isomer, unassigned) [Compound 8b, 7-O-(3'-N-Glycidyl-3'-N-methyl-alpha-L-daunosaminyl)-β-rhodomycinone]",,,,"IC50, 1 h incubation [1, 8]: 0.01 µg/mL; IC50, continuous incubation [1, 9]: 0.003 µg/mL"
"CC[C@@]1(O)C[C@H](O[C@H]2C[C@H](N(C)Cc3ccncc3)[C@H](O)[C@H](C)O2)c2c(O)c3c(c(O)c2[C@H]1O)C(=O)c1cccc(O)c1C3=O [Compound 4, 7-O-(3'-N-Methyl-3'-N-(4-picolyl)-alpha-L-daunosaminyl)-β-rhodomycinone]",0.023,0.1,2.5 to 5,"Cross-resistance to doxorubicin (in words) ([2]; L1210, MTT, in vitro): not cross-resistant to doxorubicin; Degree of resistance of the cell ([2]; MTT, 3d, IC50 resistant subline related to IC50 sensitive subline): 1.6; Cross-resistance to adriamycin (degree of cross-resistance) ([2]; MTT, 3d, adriamycin = 100.0): 0.2%"
"CC[C@@]1(O)C[C@H](O[C@H]2C[C@H](N(C)CC(C)=O)[C@H](O)[C@H](C)O2)c2c(O)c3c(c(O)c2[C@H]1O)C(=O)c1cccc(O)c1C3=O [Compound 18, 7-O-(3'-N-Acetonyl-3'-N-methyl-alpha-L-daunosaminyl)-β-rhodomycinone]",0.018,0.073,,
"C=CCN(C)[C@H]1C[C@H](O[C@H]2C[C@](O)(C(C)=O)Cc3c(O)c4c(c(O)c32)C(=O)c2c(OC)cccc2C4=O)O[C@@H](C)[C@H]1O [Compound 15, 7-O-(3'-N-Allyl-3'-N-methyl-alpha-L-daunosaminyl)-daunomycinone]",,,,"IC50 [1, 4]: 0.008 µg/mL; IC50 [1, 5]: > 1 µg/mL"
"CC[C@@]1(O)C[C@H](O[C@H]2C[C@H](N(C)CC3CO3)[C@H](O)[C@H](C)O2)c2c(O)c3c(c(O)c2[C@H]1O)C(=O)c1cccc(O)c1C3=O (single isomer, unassigned) [Compound 8a, 7-O-(3'-N-Glycidyl-3'-N-methyl-alpha-L-daunosaminyl)-β-rhodomycinone]",,,,"IC50, 1 h incubation [1, 8]: 0.0034 µg/mL; IC50, continuous incubation [1, 9]: 0.001 µg/mL"
"C=CCN(C)[C@H]1C[C@H](O[C@H]2C[C@](O)(CC)[C@H](O)c3c(O)c4c(c(O)c32)C(=O)c2c(O)ccc(O)c2C4=O)O[C@@H](C)[C@H]1O [Compound 9, 7-O-(3'-N-Allyl-3'-N-methyl-alpha-L-daunosaminyl)-β-isorhodomycinone]",0.008,0.5,> 6,
"CC[C@@]1(O)C[C@H](O[C@H]2C[C@H](N(C)Cc3cccs3)[C@H](O)[C@H](C)O2)c2c(O)c3c(c(O)c2[C@H]1O)C(=O)c1cccc(O)c1C3=O [Compound 13, 7-O-(3'-N-Methyl-3'-N-(2-thenyl)-alpha-L-daunosaminyl)-β-rhodomycinone]",0.034,0.38,,
"CC[C@@]1(O)C[C@H](O[C@H]2C[C@H](N(C)CCO)[C@H](O)[C@H](C)O2)c2c(O)c3c(c(O)c2[C@H]1O)C(=O)c1cccc(O)c1C3=O [Compound 3, -O-(3'-N-Hydroxyethyl-3'-N-methyl-alpha-L-daunosaminyl)-β-rhodomycinone]",0.02,0.044,0.2 to 1,"response vs control in vivo at 1.13 mg/kg (L1210 leukemia; L1210, iv, 3xiv,q3d, dose 1.13 mg/kg, % of the control): 108%"
"C=CCN(C)[C@H]1C[C@H](O[C@H]2C[C@](O)(CC)[C@H](O)c3c(O)c4c(c(O)c32)C(=O)c2c(OC)cccc2C4=O)O[C@@H](C)[C@H]1O [Compound 17, 7-O-(3'-N-Allyl-3'-N-methyl-alpha-L-daunosaminyl)-4-O-methyl-β-rhodomycinone]",0.036,> 1,,
"CCOC(=O)CN(C)[C@H]1C[C@H](O[C@H]2C[C@](O)(CC)[C@H](O)c3c(O)c4c(c(O)c32)C(=O)c2c(O)cccc2C4=O)O[C@@H](C)[C@H]1O [Compound 10, 7-O-(3'-N-(Ethoxycarbonylmethyl)-3'-N-methyl-alpha-L-daunosaminyl)-β-rhodomycinone]",0.1,0.06,10 to 25,"response vs control in vivo at 12.7 mg/kg (L1210 leukemia; L1210, iv, 3xiv,q3d, dose 12.7 mg/kg, % of the control): 132%"
"CC[C@@]1(O)C[C@H](O[C@H]2C[C@H](N(C)CC(N)=O)[C@H](O)[C@H](C)O2)c2c(O)c3c(c(O)c2[C@H]1O)C(=O)c1cccc(O)c1C3=O [Compound 7, 7-O-(3'-N-Acetamido-3'-N-methyl-alpha-L-daunosaminyl)-β-rhodomycinone]",0.084,0.24,2 to 5,"response vs control in vivo at 11.2 mg/kg (L1210 leukemia; L1210, iv, 3xiv,q3d, dose 11.2 mg/kg, % of the control): 142%"
